Measured values taken from ChEMBL document CHEMBL4725308, “MK-5204: An orally active β-1,3-glucan synthesis inhibitor” (Bioorg Med Chem Lett, 2020).
Values after ≈ are worked out from the molar mass of the structure shown.

Key:
[1] = tested on: Candida albicans; experiment: Antifungal activity against Candida albicans MY1055 assessed as fungal growth inhibition measured after 24 hrs by liquid microdilution method; assay type: functional
[2] = tested on: Candida albicans; experiment: Antifungal activity against Candida albicans MY1055 assessed as fungal growth inhibition measured after 24 hrs in presence of mouse serum by liquid microdilution method; assay type: functional
[3] = Inhibition of beta-1,3-glucan synthase in Candida albicans MY1055 microsomal membrane using UDP-[3H]-glucose as substrate incubated for 2 hrs in presence of UTP by radioactivity-based assay; assay type: cell membranes
[4] = tested on: Aspergillus fumigatus; experiment: Antifungal activity against Aspergillus fumigatus MF5668 assessed as fungal growth inhibition measured after 24 hrs by liquid microdilution method; assay type: functional; conditions: read-out: MEC

SMILES | MIC [1] [µg/mL] | MIC [2] [µg/mL] | IC50 [3] [µg/mL] | minimal effective concentration [4] [µg/mL]
CC(C)[C@@H](C)[C@@]1(C)CC[C@]2(C)[C@H]3CC[C@@H]4[C@@]5(COC[C@]4(C)[C@@H](OC[C@](C)(N)C(C)C)[C@H](n4ncnc4I)C5)C3=CC[C@@]2(C)[C@@H]1C(=O)O | 0.5 (≈ 0.654 µM) | 16 | 0.005 | < 0.03
CC(C)[C@@H](C)[C@@]1(C)CC[C@]2(C)[C@H]3CC[C@@H]4[C@@]5(COC[C@]4(C)[C@@H](OC[C@](C)(N)C(C)C)[C@H](n4cnnc4Cl)C5)C3=CC[C@@]2(C)[C@@H]1C(=O)O | 32 (≈ 47.5 µM) | > 32 | > 1 | 16
CC(C)[C@@H](C)[C@@]1(C)CC[C@]2(C)[C@H]3CC[C@@H]4[C@@]5(COC[C@]4(C)[C@@H](OC[C@](C)(N)C(C)C)[C@H](n4cnc(C#N)n4)C5)C3=CC[C@@]2(C)[C@@H]1C(=O)O | 8 (≈ 12 µM) | > 32 | 0.334 | 4
CCS(=O)(=O)c1ncnn1[C@@H]1C[C@@]23COC[C@@](C)([C@@H]2CC[C@H]2C3=CC[C@@]3(C)[C@H](C(=O)O)[C@@](C)([C@H](C)C(C)C)CC[C@]23C)[C@H]1OC[C@](C)(N)C(C)C | 1 (≈ 1.37 µM) | 8 | 0.005 | < 0.03
COC(=O)c1ncnn1[C@@H]1C[C@@]23COC[C@@](C)([C@@H]2CC[C@H]2C3=CC[C@@]3(C)[C@H](C(=O)O)[C@@](C)([C@H](C)C(C)C)CC[C@]23C)[C@H]1OC[C@](C)(N)C(C)C | 1 (≈ 1.43 µM) | 32 | 0.004 | 0.125
CC(C)[C@@H](C)[C@@]1(C)CC[C@]2(C)[C@H]3CC[C@@H]4[C@@]5(COC[C@]4(C)[C@@H](OC[C@](C)(N)C(C)C)[C@H](n4cnnc4C#N)C5)C3=CC[C@@]2(C)[C@@H]1C(=O)O | 16 (≈ 24.1 µM) | > 32 | > 1 | 8
CC(C)[C@@H](C)[C@@]1(C)CC[C@]2(C)[C@H]3CC[C@@H]4[C@@]5(COC[C@]4(C)[C@@H](OC[C@](C)(N)C(C)C)[C@H](n4cnc(Cl)n4)C5)C3=CC[C@@]2(C)[C@@H]1C(=O)O | 8 (≈ 11.9 µM) | > 32 | 0.019 | 0.25

The remaining compounds from weak to strong by MIC [1], led by results:

MIC [1] [µg/mL] | MIC [2] [µg/mL] | IC50 [3] [µg/mL] | SMILES | minimal effective concentration [4] [µg/mL]
0.5 (≈ 0.715 µM) | 32 | 0.009 | CCSc1ncnn1[C@@H]1C[C@@]23COC[C@@](C)([C@@H]2CC[C@H]2C3=CC[C@@]3(C)[C@H](C(=O)O)[C@@](C)([C@H](C)C(C)C)CC[C@]23C)[C@H]1OC[C@](C)(N)C(C)C | < 0.03
0.25 (≈ 0.391 µM) | 4 | 0.007 | CC(C)[C@@H](C)[C@@]1(C)CC[C@]2(C)[C@H]3CC[C@@H]4[C@@]5(COC[C@]4(C)[C@@H](OC[C@](C)(N)C(C)C)[C@H](n4cncn4)C5)C3=CC[C@@]2(C)[C@@H]1C(=O)O | < 0.03
0.25 (≈ 0.382 µM) | 16 | 0.01 | CC(C)[C@@H](C)[C@@]1(C)CC[C@]2(C)[C@H]3CC[C@@H]4[C@@]5(COC[C@]4(C)[C@@H](OC[C@](C)(N)C(C)C)[C@H](n4ncnc4N)C5)C3=CC[C@@]2(C)[C@@H]1C(=O)O | 0.125
0.125 (≈ 0.18 µM) | 2 | 0.008 | CC(C)[C@@H](C)[C@@]1(C)CC[C@]2(C)[C@H]3CC[C@@H]4[C@@]5(COC[C@]4(C)[C@@H](OCC4(N)CCOCC4)[C@H](n4ncnc4C(N)=O)C5)C3=CC[C@@]2(C)[C@@H]1C(=O)O | < 0.03
